# Data reported in ChEMBL document CHEMBL3879907, “8-azabicyclo[3.2.1]octane compounds as mu opioid receptor antagonists” (2014).
# Molecular target: Mu-type opioid receptor (Homo sapiens) (UniProt P35372)
# Assay: Intrinsic activity at human mu opioid receptor expressed in CHOK1 cell membranes at 0.00001 to 20 uM after 30 mins by GTP-Eu nucleotide exchange assay relative to DAMGO
# Format: functional
# Details: CHO-K1
# Sequence of Mu-type opioid receptor (Homo sapiens) (P35372 whole entry): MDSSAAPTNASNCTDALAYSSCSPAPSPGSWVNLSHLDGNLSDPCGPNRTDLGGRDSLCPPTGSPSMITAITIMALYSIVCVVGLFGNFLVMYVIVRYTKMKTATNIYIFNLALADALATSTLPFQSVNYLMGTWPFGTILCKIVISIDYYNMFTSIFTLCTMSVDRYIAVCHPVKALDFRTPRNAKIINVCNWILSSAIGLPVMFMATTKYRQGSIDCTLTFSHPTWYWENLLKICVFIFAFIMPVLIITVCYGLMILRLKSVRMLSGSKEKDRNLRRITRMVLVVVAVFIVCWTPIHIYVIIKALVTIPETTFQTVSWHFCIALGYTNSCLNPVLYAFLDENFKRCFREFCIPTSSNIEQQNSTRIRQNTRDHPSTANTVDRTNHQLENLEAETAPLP
row,Compound,Intrinsic activity
1,CC(=O)N(CCN1[C@@H]2CC[C@H]1C[C@@H](c1cccc(O)c1)C2)CC12CC3CC(CC(C3)C1)C2,< 40%
2,CN(C)CC(O)C(=O)N(CCN1[C@@H]2CC[C@H]1C[C@@H](c1cccc(C(N)=O)c1)C2)CC1CCCCC1 (stereo partly drawn),< 40%
3,C[C@H](O)C(=O)N(CCCN1[C@@H]2CC[C@H]1C[C@@H](c1cccc(C(N)=O)c1)C2)Cc1ccccc1,< 40%
4,CC(C)(C)NCC[C@H](O)C(=O)N(CCN1[C@@H]2CC[C@H]1C[C@@H](c1cccc(C(N)=O)c1)C2)CC1CCCCC1,< 40%
5,O=C(O)C1CCCCC1C(=O)N(CCN1[C@@H]2CC[C@H]1C[C@@H](c1cccc(O)c1)C2)CC1CCCCC1 (stereo partly drawn),< 40%
6,NC(=O)c1cccc([C@H]2C[C@H]3CC[C@@H](C2)N3CCN(CC2CCC(C(F)(F)F)CC2)C(=O)CO)c1 (stereo partly drawn),< 40%
7,O=C(CO)N(CCN1[C@@H]2CC[C@H]1C[C@@H](c1cccc(O)c1)C2)CC12CC3CC(CC(C3)C1)C2,< 40%
8,O=C(O)CCC(=O)N(CCN1[C@@H]2CC[C@H]1C[C@@H](c1cccc(O)c1)C2)CC12CC3CC(CC(C3)C1)C2,< 40%
9,O=C(CCC1CCCC1)N(CCN1[C@@H]2CC[C@H]1C[C@@H](c1cccc(O)c1)C2)CC1CCCCC1,< 40%
10,O=C(CO)N(CCN1[C@@H]2CC[C@H]1C[C@@H](c1cccc(O)c1)C2)Cc1ccc(Cl)cc1,< 40%
11,O=C(C(O)CCc1ccccc1)N(CCN1[C@@H]2CC[C@H]1C[C@@H](c1cccc(O)c1)C2)CC1CCCCC1 (stereo partly drawn),< 40%
12,CN(C)S(=O)(=O)N(CCN1[C@@H]2CC[C@H]1C[C@@H](c1cccc(C(N)=O)c1)C2)Cc1ccc(CF)cc1,< 40%
13,NC(=O)c1cccc([C@H]2C[C@H]3CC[C@@H](C2)N3CCN(CC2CCC(F)(F)CC2)C(=O)[C@@H](O)CO)c1,< 40%
14,C[C@@H](O)[C@H](O)C(=O)N(CCN1[C@@H]2CC[C@H]1C[C@@H](c1cccc(C(N)=O)c1)C2)Cc1ccccc1,< 40%
15,NC(=O)c1cccc([C@H]2C[C@H]3CC[C@@H](C2)N3CCN(C[C@H]2CC[C@@H](O)CC2)C(=O)[C@@H](O)CO)c1,< 40%
16,CC(O)C(O)C(=O)N(CCCN1[C@@H]2CC[C@H]1C[C@@H](c1cccc(C(N)=O)c1)C2)Cc1ccccc1 (stereo partly drawn),< 40%
17,CCC(C)NC(=O)N(CCN1[C@@H]2CC[C@H]1C[C@@H](c1cccc(O)c1)C2)CC1CCCCC1 (stereo partly drawn),< 40%
18,CC(C)(C)C(=O)N(CCCN1[C@@H]2CC[C@H]1C[C@@H](c1cccc(C(N)=O)c1)C2)Cc1ccccc1,< 40%
19,NC(=O)c1cccc([C@H]2C[C@H]3CC[C@@H](C2)N3CCN(CC23CC4CC(CC(C4)C2)C3)C(=O)CCC(=O)O)c1,< 40%
20,O=C(O)C(O)CC(=O)N(CCN1[C@@H]2CC[C@H]1C[C@@H](c1cccc(O)c1)C2)Cc1cccc(F)c1 (stereo partly drawn),< 40%
21,CC1CCC(CN(CCN2[C@@H]3CC[C@H]2C[C@@H](c2cccc(C(N)=O)c2)C3)C(=O)CS(C)(=O)=O)CC1 (stereo partly drawn),< 40%
22,CCC(C)NC(=O)N(CCN1[C@@H]2CC[C@H]1C[C@@H](c1cccc(C(N)=O)c1)C2)CC1CCCCC1 (stereo partly drawn),< 40%
23,NC(=O)c1cccc([C@H]2C[C@H]3CC[C@@H](C2)N3CCN(CC2CCC(F)CC2)C(=O)[C@@H](O)CO)c1 (stereo partly drawn),< 40%
24,CC1CCC(CN(CCN2[C@@H]3CC[C@H]2C[C@@H](c2cccc(C(N)=O)c2)C3)C(=O)[C@@H](O)CO)CC1 (stereo partly drawn),< 40%
25,O=C(N(CCN1[C@@H]2CC[C@H]1C[C@@H](c1cccc(O)c1)C2)CC1CCCCC1)C1(O)CC1,< 40%
26,NC(=O)c1cccc([C@H]2C[C@H]3CC[C@@H](C2)N3CCN(Cc2ccccc2)C(=O)[C@H](O)CO)c1,< 40%
27,NC(=O)c1cccc([C@H]2C[C@H]3CC[C@@H](C2)N3CCN(CC2CCC(C(F)(F)F)CC2)C(=O)[C@@H](O)CO)c1 (stereo partly drawn),< 40%
28,NC(=O)c1cccc([C@H]2C[C@H]3CC[C@@H](C2)N3CCN(C[C@H]2CC[C@H](O)CC2)C(=O)[C@@H](O)CO)c1,< 40%
